{"source": "patent US4609664A", "about": "“Antiasthmatic piperidylidene derivatives” (Sandoz Ltd., priority 1980, dated 1986)", "test_system": "cutaneous anaphylactic reaction", "assay": "passive cutaneous anaphylaxis (PCA) test in the rat", "format": "in vivo", "conditions": "dose decreasing diameter of blue area by 50% vs solvent controls, female rats", "protocol": "This activity is indicated in the passive cutaneous anaphylaxis (PCA) test in the rat.\nThe method employed in this test is based on those described by Mota, Immunology 7, 681 (1964) and Stofland and Share, J. Physiol. Pharmacol. 52, 1114 (1974). Female rats (180-200 g) are sensitized by subcutaneous administration of 1 mg of ovalbumin and 200 mg aluminium hydroxide, dissolved in 1 ml of physiological saline solution and intraperitoneal administration of 0.5 ml of Haemophilus pertussis vaccine (SchweizerischesSerum- und Impfinstitut, Bern, Switzerland; 4×10^10 organism/ml). Fourteen day later, the animals are decapited, the blood centrifuged and the serum (anti-ovalbumin serum) collected and deep frozen.\nThe diluted anti-ovalbumin serum is injected intradermally (0.1 ml per injection site) at […] on the backs of untreated, female rats. Twenty-four hours after the passive sensitisation, the rats receive either solvent or the test compound i.v. in a tail-vein or per os. Immediately afterwards or, in the case of p.o. administration, 60 minutes later, the animals receive an intravenous injection of 1 ml of antigen. The antigen (5 mg/ml) is dissolved in a 0.25% solution of Evans blue dye in physiological saline. In the controls this injection elicits a cutaneous anaphylactic reaction, the intensity of which is proportional to the distance to which the dye diffuses into the tissue surrounding the four sensitisation sites. Thirty minutes later, the rats are killed in CO2 and the diameter in mm of the blue spot at each injection site measured. The drug dose decreasing the diameter of the blue area by 50% compared with solvent pretreated control rats (ED50), is obtained from the regression line. The dose-effect correlation is tested for statistical significance.\nIn the above test, compounds of the formula I are found to be active on administration at dosages of from about 0.1 to about 3.2 mg/kg p.o. and from about 0.056 to about 1.00 mg/kg i.v. ED50 values for the representative compounds 4-{1-[2-[2-(2-hydroxy-ethoxy)ethoxy]ethyl]piperidin-4-yliden}-4H-benzo[4,5]cyclohepta[1,2-b]thiophen-10(9H)-one. HBr (Compound A) and 2-{2-[2-[4-(5H-dibenzo[a,d]cyclohept-5-yliden)piperidin-1-yl]ethoxy]ethoxy}ethanol hydrogenofumarate (Compound B) as well as for the reference compound 5,5'-[(2-hydroxy-1,3-propanediyl)bis-(oxy)]bis[4-oxo-4H-1-benzopyran-2-carboxylic acid]", "key": {"[1]": {"conditions": "iv, i.v. in a tail-vein, immediately before antigen, read-out: ED50 (i.v.)"}, "[2]": {"conditions": "po, 60 minutes before antigen, read-out: ED50 (p.o)"}}, "note": "Read-outs that look alike come from different tables or passages of the source."}
{"smiles": "O=C(O)c1cc(=O)c2c(OCC(O)COc3cccc4oc(C(=O)O)cc(=O)c34)cccc2o1", "note": "[Compound C, 5,5'-[(2-hydroxy-1,3-propanediyl)bis-(oxy)]bis[4-oxo-4H-1-benzopyran-2-carboxylic acid], reference compound]", "values": [{"measurement": "ED50", "setting": "[1]", "result": "~2.6", "unit": "mg/kg"}]}
{"smiles": "OCCOCCOCCN1CCC(=C2c3ccccc3C=Cc3ccccc32)CC1", "note": "[Compound B, 2-{2-[2-[4-(5H-dibenzo[a,d]cyclohept-5-yliden)piperidin-1-yl]ethoxy]ethoxy}ethanol hydrogenofumarate]", "values": [{"measurement": "ED50", "setting": "[1]", "result": "~0.22", "unit": "mg/kg"}, {"measurement": "ED50", "setting": "[2]", "result": "~0.49", "unit": "mg/kg"}]}
{"smiles": "O=C1Cc2ccccc2C(=C2CCN(CCOCCOCCO)CC2)c2ccsc21", "note": "[Compound A, 4-{1-[2-[2-(2-hydroxy-ethoxy)ethoxy]ethyl]piperidin-4-yliden}-4H-benzo[4,5]cyclohepta[1,2-b]thiophen-10(9H)-one. HBr]", "values": [{"measurement": "ED50", "setting": "[1]", "result": "~0.21", "unit": "mg/kg"}, {"measurement": "ED50", "setting": "[2]", "result": "~1.8", "unit": "mg/kg"}]}
